Source: patent US9931287B2, “Simple micro-particulate suspension of behentrimonium chloride with favorable distributive and adsorptive properties” (Formula XO, Inc., priority 2013, dated 2018)

Assays:
[1] = Spraying onto a clear glass surface held perpendicular to the ground (retention); format: physicochemical; conditions: sprayed on clear glass held perpendicular to the ground; same BC concentration
From the text: A BC/DPLC suspension prepared as in Example 1 and a BC solution (at the same concentration) are sprayed on to a clear glass surface held perpendicular to the ground. The liquids run freely downward. […] This teaches that spraying of the BC/DPLC formulation achieves the desired benefit, as expected in its use on hair and skin.

[2] = Spraying of formulations onto surface of a pan of water (dilution stability of aggregates); format: physicochemical; conditions: mixed vigorously, sprayed onto surface of a pan of water at room temperature (20° C.)
Description: The two formulations are each mixed vigorously to disperse their contents and then sprayed onto the surface of a pan of water at room temperature (20° C.).

[3] = Appearance of solutions after cooling to room temperature; format: physicochemical; conditions: cooled from 85° C. to room temperature
Description: A solution of BC is prepared by adding 20 grams BTMC-85 (Mason chemical company, 80% active by weight) to 330 ml of water and heating to 85° C. 50 grams of DPLC (SL-5, Mason chemical company, 35% active by weight) is added. The solution is clear and a slight yellow in color. A solution of BC is prepared in water as above but without addition of DPLC. Both solutions are cooled to room temperature.

wet hair of individuals = experiment: Spraying onto the wet hair of individuals; format: in vivo; conditions: sprayed onto wet hair, left on while hair dried, combed and brushed while damp
Description: A suspension of BC/DPLC was prepared as described in Example 1. It was sprayed onto the wet hair of individuals and left on while the hair dried. The hair was combed and brushed while still damp.
A solution of BC, equal in the concentration BC as in Example 1, was also sprayed on the wet hair of an individual, as described above.

Compound: CCCCCCCCCCCCCCCCCCCCCC[N+](C)(C)C [BC, Behentrimonium chloride (N,N,N-trimethyldocosan-1-aminium chloride]
- appearance of glass surface after liquid runs off [1]: clear
- behaviour on dilution in water [2]: gradually diffuses down into the water layer resulting in a nearly clear, transparent solution
- appearance of solution after cooling [3]: forms a uniform milky suspension
- feel of hair (wet hair of individuals): oily, and lacked the feel and management properties of the BC/DPLC formulation
